From patent US6274611A, “Methods and compositions for inhibition of viral replication” (The United States of America as represented by the …, priority 1999, dated 2001)
Entries after “also recorded” stand apart in the source; their conditions may differ.

Assays:
HIV-1 [1] = assay: HIV-1 activation in TNF-α-treated OM-10.1 cultures, culture supernatant reverse transcriptase activity; type: cell-based, HIV-1 in OM-10.1 cells; conditions: for HIV-1 inhibitory activity in the OM-10.1 induction system: OM-10.1 cells, TNF-α induction
Description: (§1) FIG. 2 is a graph showing the inhibition of HIV-1 expression and toxicity in OM-10.1 cells by DRB, and similarity to inhibition imposed by chrysin and PD 144795. Reverse transcriptase activity (--.ae butted.--) was measured (as taught in Butera et al, Mol. Med. vol. 1, pp. 758-767 (1995)) in culture supernatants 48 hr after HIV activation, and cell viability (--.tangle-solidup.--) was assessed at 24 hr by flow cytometric analysis of propidium iodide exclusion. Inset: A graph showing the inhibition of HIV-1 expression in OM-10.1 cells by chrysin- (--Δ--) and PD 144795 (--.star.--) treatment of HIV-1.
(§2) OM-10.1 and HL-60 cells as described in Example 1 were propagated in RPMI-1640 supplemented with 10% heat-inactivated fetal calf serum, 2 mM glutamine, and 1% Pen-Strep. Induction of HIV-1 using TNF-α (Butera, S. T., et al, J. Virol. Vol. 65, pp. 4645-4653 (1991)), and antiviral assays (Butera, S. T., et al MoL Med. Vol. 1, pp. 758-767 (1995), Critchfield, J. W., et al., AIDS Res. Hum. Retr. Vol. 12, pp. 39-46 (1996)), were performed as described. For binding studies, cultures were grown to a density of 106 /ml, washed twice with cold PBS, and the cell pellet either flash-frozen in dry ice/ethanol for storage at -70° C., or immediately lysed in 1 ml cold lysis buffer/10^7 cells. Lysis buffer consisted of 0.02 M HEPES (pH 7.4), 0.5% Triton X-100, 0.3 M NaCl, 20 mM NaF, 1 mM each of Na4 P2 O7, Na3 VO4, DTT, EGTA and EDTA, 1 μg/ml each of leupeptin, aprotinin, and pepstatin, 0.5 mM PMSF, and 50 nM okadaic acid. Lysates were incubated on ice for 15 min, centrifuged at 10,000×g for 15 minutes at 4° C., then the supernatants were either used immediately or stored -70° C. For binding reactions with the chrysin affinity resin, lysates (2 ml) were diluted 1:2 with ice-cold 0.02 M HEPES (pH 7.4), then competitor compounds (or 0.1% final DMSO as the control), as indicated, were added to a final concentration of 10 μM and the lysates incubated on ice for 30 min. Chrysin-Sepharose (0.2 ml) was then added and the reactions gently mixed for 1 hr at 4° C. After 3 washes with cold 0.02 M HEPES (pH 7.4), 0.15 M NaCl, 0.25% Triton X-100, bound proteins were eluted with 2 ml 0.02 M ethanolamine (pH 9.5), 0.1% SDS, 0.5 mM chrysin, 1.0% DMSO at 23° C. Samples were concentrated via centrifugation at 23° C. through a 10 kD cut-off membrane (Centricon), then analyzed by SDS-PAGE (8%), and silver stained.
HIV-1 activation experiments were conducted in the presence or absence of DRB. […] Furthermore, the effective dose range of DRB (1-10 μM) was nearly identical to that of the other compounds (FIG. 2, inset), and toxicity over the effective dose range for the other compounds was also negligible.

casein kinase I = conditions: Shugar 1994; cited from earlier work
OM-10.1 cells = assay: OM-10.1 culture viability (flow cytometric propidium iodide exclusion); type: cell-based, human; conditions: OM-10.1 cultures; viability assessed at 24 hr
Description: as §1

[2] = system: chrysin-binding proteins p44, p40, p29, p28 (subunits of CKII); assay: Chrysin affinity resin binding reaction with competitor compounds in OM-10.1 cell lysates (SDS-PAGE silver stain, anti-CKII immunoblot); set-up: species or system human; conditions: for effect of competitor on binding of proteins (p44, p40, p29, p28) to the chrysin-resin: competitor 10 μM added to lysate of TNF-α-induced OM-10.1 cells; for effect of competitor on binding of proteins (p44, p40, p29, p28) to the chrysin-resin / effect of competitor on binding of p28 to chrysin resin: silver staining; for effect of competitor on immunodetection of α, α' and β subunits of CKII bound to the chrysin resin / effect of competitor on binding of p28 to chrysin resin: competitor 10 μM; for effect of competitor on immunodetection of α, α' and β subunits of CKII bound to the chrysin resin: anti-CKII immunoblot
Description: The affinity resin was made by attachment of 4'-OH-chrysin chrysin (apigenin) to epoxy-activated Sepharose 6B, resulting in chrysin in an ether-linkage. The resin (2 g, dry) was washed with water then 0.1 N NaOH, added to 60 ml 0.01 M apigenin in 0.1 N NaOH (or 0.1 N NaOH only for a non-derivatized control resin), and incubated with gentle mixing for 24 hr at 37° C. The resin then underwent a series of washes (Ghenbot, et al., Prot. Expr. Purif. Vol. 3, pp. 470-478 (1992)) and the residual reactive groups capped with 0.1 M ethanolamine for 16 hr at 37° C. After washing with water, the resin was stored at 4° C. in 0.2% NaN3.
as §2
For Western analysis, proteins were transferred to PVDF and probed with a combination of two antibody reagents, one recognizing an epitope common to both the α and α' subunit of CKII (Upstate Biotechnology) and the other reacting with the β subunit of CKII (a gift from D. Litchfield, University of Western Ontario). Final detection was with enhanced chemiluminescence (Amersham).
To identify the targets of HIV-1 inhibitory flavonoids, Sepharose was derivatized with the flavonoid chrysin and interacted with lysates from OM-10.1 cells as described in Example I. Cultures induced to maximally express HIV-1 (24 hr treatment with TNF-α) were utilized to ensure the presence of both cellular and viral proteins.
To further confirm that the chrysin-binding proteins were indeed the subunits of CKII, resin-binding reactions were performed using a selective inhibitor of CKII activity, 5,6 dichloro-1-β-D-ribofuranosylbenzimidazole (DRB), and the results analyzed by silver staining and anti-CKII immunoblotting. […] Since the apparent mass of the β chain of CKII is increased by phosphorylation (Luscher, B. L., et al. Eur. J. Biochem. Vol. 220, pp. 521-526 (1994)), it was possible that p28 represented an unphosphorylated form of p29. […] Furthermore, the major p28 band observed by silver stain was absent by immunoblot analysis. This absence was not due to an inability of the CKIIβ antibody to recognize dephosphorylated CKIIβ, which had lower apparent mass following alkaline phosphatase treatment. […]

NF-κB = NF-κB activation and I-κB degradation upon cellular activation; type: cell-based
[3] = biological target: human recombinant CKII (ααββ form) (Homo sapiens, UniProt P68400); assay: Human recombinant CKII enzyme kinetics; type: biochemical; conditions: for inhibition of CKII enzymatic activity: 37° C.
Chain of human recombinant CKII (ααββ form) (P68400 whole entry): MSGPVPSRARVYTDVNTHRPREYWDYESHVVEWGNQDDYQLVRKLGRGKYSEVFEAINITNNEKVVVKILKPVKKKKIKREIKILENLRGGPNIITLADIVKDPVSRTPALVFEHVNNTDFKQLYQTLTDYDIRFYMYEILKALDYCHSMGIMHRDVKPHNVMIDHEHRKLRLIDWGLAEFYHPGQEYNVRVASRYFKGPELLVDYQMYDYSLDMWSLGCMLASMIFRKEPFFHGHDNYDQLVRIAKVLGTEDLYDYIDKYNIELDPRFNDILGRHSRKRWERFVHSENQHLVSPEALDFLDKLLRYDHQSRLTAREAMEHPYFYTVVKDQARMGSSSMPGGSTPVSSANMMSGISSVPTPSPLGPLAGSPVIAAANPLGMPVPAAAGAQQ
Chain of human recombinant CKII (ααββ form) (P67870 whole entry partner): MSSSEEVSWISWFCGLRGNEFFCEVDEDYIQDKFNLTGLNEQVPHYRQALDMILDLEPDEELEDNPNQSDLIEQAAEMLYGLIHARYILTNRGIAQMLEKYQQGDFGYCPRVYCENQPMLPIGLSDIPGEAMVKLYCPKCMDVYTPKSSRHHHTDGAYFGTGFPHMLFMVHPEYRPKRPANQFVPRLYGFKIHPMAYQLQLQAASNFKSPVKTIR
Description: Reactions were carried out at 37° C. in 0.025 M HEPES (pH 7.4), 0.15 M KCl, 0.01 M MgCl2, 1.4 mM β-mercaptoethanol, 1 mM DTT, 1 mM EGTA, 10% glycerol, 0.32 mM synthetic CKII peptide, ([…]), 1 μU/μl CKII, and the indicated concentrations of ATP and test agents. Unincorporated [γ-^32 P] ATP was removed by spotting reactions onto P81 phosphocellulose paper (Whatman) and washing in 0.75 mM phosphoric acid then acetone.

HIV-1 [4] = conditions: latently and chronically infected cells; Butera et al. 1995, Critchfield et al. 1996; cited from earlier work
HIV-1 [5] = assay: Down modulation of cell surface CD4 in TNF-α-induced OM-10.1 cultures; type: cell-based, HIV-1 in OM-10.1 cells
Source text: Critical tools for studying the efferent phase of the HIV life cycle are the latently infected cell lines such as UI, ACH2, J1, and OM-10.1. […] HIV activation can also be achieved by phorbol esters such as PMA (phorbol -12-myristate-13-acetate).
The CD4 response is a direct consequence of viral activation and allows a rapid, convenient and highly reproducible assessment of treatments that modify TNF-α expression of HIV from its latent state. In addition, the down modulation of CD4 is not affected by inhibitors of virion assembly or release such as protease inhibitors. Thus, by measuring cell surface CD4 and a virion constituent such as reverse transcriptase (RT), it is possible to discriminate between inhibition of HIV assembly, release and earlier events.

HIV = conditions: acutely infected H9 cells (baicalin also CEM-ss cells and PBMCs); cited from earlier work

NCCNS(=O)(=O)c1ccc(Cl)c2ccncc12 [CKI-7]
HIV-1 inhibitory activity in the OM-10.1 induction system (HIV-1 [1]): without HIV-1 inhibitory activity

OC[C@H]1O[C@@H](n2cnc3cc(Cl)c(Cl)cc32)[C@H](O)[C@@H]1O [DRB, 5,6-dichloro-1-β-D-ribofuranosylbenzimidazole]
inhibitory activity against casein kinase I (casein kinase I): appreciable inhibitory activity | EC50 (HIV-1 [1]; Human immunodeficiency virus 1, TNF-α-treated OM-10.1 cultures, RT measured 48 hr after HIV activation, read-out: ED50, reduction in culture supernatant reverse transcriptase activity): ~2000 nM | HIV-1 inhibitory activity in the OM-10.1 induction system (HIV-1 [1]): markedly inhibited; also recorded: potently inhibits | effective dose range for inhibition of HIV-1 expression (HIV-1 [1]; TNF-α-treated OM-10.1 cultures): 1 to 10 µM | culture viability / toxicity over the effective dose range (OM-10.1 cells): did not decline | effect of competitor on binding of proteins (p44, p40, p29, p28) to the chrysin-resin [2]: prevented the binding of the same proteins that were competed by free chrysin | effect of competitor on immunodetection of α, α' and β subunits of CKII bound to the chrysin resin [2]: eliminated their immunodetection | effect of competitor on binding of p28 to chrysin resin [2]: the only exception being p28 | NF-κB activation and function (NF-κB; TNF-α-treated OM-10.1 cultures): appeared normal | degradation of I-κB upon cellular activation (NF-κB; in the presence of compound): Normal degradation

COc1ccc2c(c1)c(OC(C)C)c(C(N)=O)[s+]2[O-] (stereo not shown) [PD 144795]
inhibition of CKII enzymatic activity [3]: inhibition of CKII enzyme activity | HIV-1 inhibitory activity in the OM-10.1 induction system (HIV-1 [1]): HIV-inhibitory | effect of competitor on binding of proteins (p44, p40, p29, p28) to the chrysin-resin [2]: pattern of binding inhibition identical to that of DRB | effect of competitor on binding of p28 to chrysin resin [2]: did not alter | inhibition of HIV transcription (HIV-1 [4]): inhibiting HIV transcription at micromolar concentrations

O=C1CN=C(c2ccc[nH]2)c2cc(Cl)ccc2N1 [Ro 5-3335]
inhibition of down modulation of CD4 (HIV-1 [5]): inhibits both of these measures to a similar extent | inhibition of RT (HIV-1 [1]; TNF-α-induced OM-10.1 cultures): inhibits both of these measures to a similar extent

O=c1cc(-c2ccc(O)cc2)oc2cc(O)cc(O)c12 [apigenin]
HIV-1 inhibitory activity in the OM-10.1 induction system (HIV-1 [1]): HIV-inhibitory | effect of competitor on binding of proteins (p44, p40, p29, p28) to the chrysin-resin [2]: specifically inhibited in their binding to the resin

O=C(O)[C@H]1O[C@@H](Oc2cc3oc(-c4ccccc4)cc(=O)c3c(O)c2O)[C@H](O)[C@@H](O)[C@@H]1O [baicalin]
inhibition of HIV replication in acutely infected cells (HIV): inhibits HIV replication

Oc1cc(O)c2c(c1)OC(c1ccc(O)c(O)c1)C(O)C2 (stereo not shown) [catechin]
HIV-1 inhibitory activity in the OM-10.1 induction system (HIV-1 [1]): lacking HIV-1 inhibitory activity | effect of competitor on binding of proteins (p44, p40, p29, p28) to the chrysin-resin [2]: no effect

O=c1cc(-c2ccccc2)oc2cc(O)cc(O)c12 [chrysin]
inhibition of HIV replication in acutely infected cells (HIV): significant inhibitory activity | kinetics of CKII inhibition with respect to ATP [3]: competitive kinetics with respect to ATP | inhibition of CKII enzymatic activity [3]: inhibit human recombinant CKII enzymatic activity | effect of competitor on binding of proteins (p44, p40, p29, p28) to the chrysin-resin [2]: specifically inhibited in their binding to the resin | effect of competitor on immunodetection of α, α' and β subunits of CKII bound to the chrysin resin [2]: eliminated their immunodetection | inhibition of HIV transcription (HIV-1 [4]): potent inhibitors

COc1ccc([C@@H]2CC(=O)c3c(O)cc(O[C@@H]4O[C@H](CO[C@@H]5O[C@@H](C)[C@H](O)[C@@H](O)[C@H]5O)[C@@H](O)[C@H](O)[C@H]4O)cc3O2)cc1O [hesperidin]
HIV-1 inhibitory activity in the OM-10.1 induction system (HIV-1 [1]): lacking HIV-1 inhibitory activity | effect of competitor on binding of proteins (p44, p40, p29, p28) to the chrysin-resin [2]: no effect
